Numbered stars: 1 amine (or outer) side, 2 acyl side, 3 side chain; on linkers, the order of the positions; unused ones are H or OH. Ends that are not written are not given here. Suc = O=C(CCC(=O)[*:2])[*:1]
How the values were obtained:
[1] = test system: progressive or recurrent carcinoma; experiment: Open label, single arm, dose escalation study of IRL-1620 in combination with docetaxel: anti-tumor activity; assay type: in vivo, human
Text: Patient characteristics were as follows.
CT or MRI scans are used to assess the patient's tumor size. A series of dynamic contrast enhancer pattern MRI scans are used to measure any increases in blood flow induced by IRL 1620.

[2] = test system: blood flow in tumor and non-tumor regions; experiment: H2^15O PET Blood Flow scans after IRL-1620; assay type: in vivo, human; details: patients, PET blood flow scans on Day 8
[3] = 30 patients, IRL-1620 with docetaxel
[4] = previously docetaxel treated prostate cancer patient

N-Succunyl-[Glu^9, Ala^11,15] Endothelin-1 (8-21) (Suc-DEEAVYFAHLDIIW) [IRL-1620, ETB receptor agonist]
time on study of patients with prolonged clinical benefit ([1]; 4 cases, IRL-1620 with docetaxel): 20-74 weeks
cases of prolonged clinical benefit [1, 3]: 4 cases
cases of stable disease [1, 3]: 5 cases
prolonged clinical benefit rate [1, 3]: 13%
stable disease (SD) rate [1, 3]: 16%
anti-tumor activity ([1]; docetaxel-pretreated patients): Anti-tumor activity was seen
time to complete regression of lung metastasis ([1]; one patient with cholangiocarcinoma): ≤ 3 months
time on study before progressing ([1]; one patient with cholangiocarcinoma, complete regression of lung metastasis): 41 weeks
discontinuation of the study due to disease progression ([1]; patients, IRL-1620 with docetaxel): 84%
PSA response [1, 4]: PSA response
change in metastatic prostate cancer [1, 4]: measurable decrease
changes in blood flow [2]: did not result in any measurable changes

Source: patent US10022421B2, “Treatment of primary and metastatic carcinoma” (Spectrum Pharmaceuticals Inc., priority 2012, dated 2018)
